Assay results published in article PMC6494957 (Frontiers in Microbiology, 2019).
Like-named read-outs stand apart in the source and are kept apart here.

Assays:
[1] = tested on: HaCaT cell line; test: In vitro cytotoxicity, WST-1; type: cell-based; conditions: Homo sapiens, 10% FBS, read-out: IC50, single agent
Protocol: Cells were maintained in Dulbecco’s modified Eagle’s medium (DMEM) with 10% fetal bovine serum (FBS) and 1% PenStrep (100 U/mL Penicillin and 100 μg/mL Streptomycin) at 37°C with 5% CO2. Cells were serially passaged at ∼80% confluence ∼ every 4 days. Assays were performed in duplicate in 96 well plates seeded with ∼25,000 cells per well. […] Briefly, the antimicrobials were prepared by performing a twofold serial dilution at 100× of tested concentration in DMSO. Subsequently, a 1 μl aliquot of each concentration was transferred to a sterile 96-well plate containing fresh DMEM with either 10% FBS. After mixing four times, the media aliquots with different concentrations of antimicrobial were transferred to each well of the 96-well plate seeded with cells, using wells containing 1–2% DMSO only as control. To determine the effect of FBS on the cytotoxicity of each compound, DMEM with 40% FBS containing different concentrations of antimicrobial was prepared as described above. After 24 h of exposure, WST-1 reagent (Cell Proliferation Assay reagent, Roche) at a concentration of 10% was added to each well. Absorbance at A450 nm on a Multiskan Ascent 354 Spectrophotometer (Labsystems) was measured after 1 h of incubation. The IC50 value was determined for each compound against each cell line via non-linear regression (three parameters) using GraphPad Prism v6 software.

[2] = tested on: S. pseudintermedius (n = 20) clinical isolates from otitis externa cases in dogs; test: MIC/MBC and checkerboard, canine otitis externa isolates; type: cell-based, Staphylococcus pseudintermedius; conditions: for MIC50 / MIC90: Staphylococcus pseudintermedius; for MIC50, in combination of EDTA and ROB / MIC90, in combination of EDTA and ROB / MIC range, in combination of EDTA and ROB: concentration of the labelled component
Source text: (§1) Escherichia coli ATCC 25922, E. coli ATCC 11229, P. aeruginosa ATCC 27853, P. aeruginosa PA01, Pseudomonas putida ATCC 17428, P. mirabilis ATCC 43071, K. pneumoniae ATCC 13883, A. baumannii ATCC 19606, and A. baumannii ATCC 12457 were used for preliminary susceptibility testing and combination experiments. S. aureus ATCC 29213 and S. pneumoniae ATCC 49619 were used as internal quality controls. A variety of bacterial organisms from both human and canine infections were investigated in this study (n = 119 isolates in total). Twenty-eight clinical Acinetobacter spp. isolates were obtained from cases of human skin and soft tissue infections, including 18 Acinetobacter baumannii and 10 A. calcoaceticus, kindly provided by a person (Institute of Medical and Veterinary Science, South Australia). […] Ninety-one clinical isolates were obtained from cases of canine otitis externa, including seven methicillin-susceptible S. pseudintermedius (MSSP), 13 multidrug- and methicillin-resistant S. pseudintermedius (MRSP) ([Saputra et al., 2017]), 20 beta-haemolytic Streptococcus spp., 30 P. aeruginosa (10 of them resistant to gentamicin and 21 P. mirabilis isolates). These isolates were obtained from the bacterial collection of the national survey of antimicrobial resistance in animals conducted in Australia. Swab samples from dogs with signs of otitis externa were collected by veterinarians and submitted to government, private or university diagnostic laboratories throughout Australia. After routine bacterial identification and the removal of confidential information, the participating veterinary diagnostic laboratories submitted the bacteria and their clinical information to PC2 Laboratories, Australian Centre for Antimicrobial Resistance Ecology, School of Animal and Veterinary Sciences, University of Adelaide, Roseworthy Campus, Roseworthy, SA, Australia, for further study. Thus, animal ethics approval was not required in this study. These organisms were identified to species level using biochemical testing and MALDI-TOF mass spectrometry (Bruker, Preston, VIC, Australia).
(§2) The MIC for ampicillin or gentamicin against each isolate was determined for each test to serve as an internal quality control. The MICs of isolates were determined by visual reading and using an EnSpire Multimode Plate Reader 2300 atA600nm.
(§3) Briefly, 10 μl aliquots from each duplicate well from the MIC assays (starting from the MIC for each compound) were inoculated onto a sheep blood agar (SBA) plate and incubated at 37°C.
(§4) Briefly, antimicrobial stock solutions for robenidine and PMBN were prepared at a concentration of 12.8 mg/ml in DMSO. […] A 1 μl aliquot of the first compound from each combination was dispensed along the abscissa (from row A to G) of the 96-well microplate, while the second compound was dispensed along the ordinate (from column 12 to column 3) using an electronic multichannel pipette followed by 89 μl of LB broth. Each well of the plate was inoculated with an aliquot of 10 μl bacterial suspension at a concentration of 1-5 × 10^6 colony forming units (CFU) per ml. Subsequently, the plate was incubated at 37°C for 24 h. The fractional inhibitory concentration index (FICI) described the results of the combinations, and was calculated utilizing the following formula:
(§5) DRI = MIC of drug alone/MIC of drug in combination

[3] = tested on: A. baumannii ATCC 12457; test: microbe, parasite or virus in culture; conditions: for DRI EDTA:ROB: DRI of the labelled component; for MIC: Acinetobacter baumannii
Protocol: as §2, §4, §5

[4] = tested on: preformed biofilms of two clinical isolates of S. pseudintermedius; test: Antibiofilm susceptibility (MBEC device) and biofilm checkerboard; type: cell-based, Staphylococcus pseudintermedius
Protocol: Briefly, biofilms of P. aeruginosa PA01, two clinical isolates of P. aeruginosa isolates and two clinical isolates of S. pseudintermedius were formed by inoculating 150 μl of 10^7 CFU/ml of each bacterial suspension in the MBEC^TM device. The inoculated device was aerobically incubated on an orbital shaker at 37°C (OM11, Ratek Instruments Pty Ltd., Australia) for 24 h to produce equivalent (Uniform) biofilms on all pegs. […] Following antimicrobial challenge, the biofilms were rinsed twice with phosphate buffered saline (pH = 7) and disrupted via sonication (Soniclean, Model 160TD, Australia) for 10 min into the recovery medium. Viable cell counts were determined for recovered cells (colony-forming units per peg) after preparing a serial dilution and plating 10 μl in duplicates of each dilution onto plate count agar. Viable counts were then expressed as a percentage of the mean CFU of growth controls. MBEC was defined as the lowest concentration of antimicrobial agent that eradicates the biofilms recovered from the antimicrobial challenge.
Briefly, the MBEC^TM High-throughput assay system (MBEC^TM BioProducts, Innovotech, Canada) was used for the preparation of Gram-positive and Gram-negative biofilm producing bacteria as described above for antibiofilm susceptibility testing. […] Subsequently, the plate was incubated at 37°C for 24 h.

[5] = tested on: Beta-haemolytic streptococci (n = 20) clinical isolates from otitis externa cases in dogs; test: MIC/MBC and checkerboard, canine otitis externa isolates; type: cell-based, beta-haemolytic Streptococcus spp.; conditions: for MIC50 / MIC90: Streptococcus; for MIC50, in combination of EDTA and ROB / MIC90, in combination of EDTA and ROB / MIC range, in combination of EDTA and ROB: concentration of the labelled component
Source text: as §1, §2, §3, §4, §5

[6] = canine otitis externa, read-out: MIC50, single drug
[7] = canine otitis externa, read-out: MIC90, single drug
[8] = read-out: MIC50, single drug (mM in parentheses)
[9] = read-out: MIC90, single drug (mM in parentheses)
[10] = A. baumannii ATCC 12457, concentration of the labelled component
[11] = ATCC12457, read-out: MIC, single drug

SMILES | IC50 [1] | MIC50 [2, 6] | MIC90 [2, 7] | MIC range, single drug ([2]; canine otitis externa) | MIC50, in combination of EDTA and ROB [2] | MIC90, in combination of EDTA and ROB [2] | MIC range, in combination of EDTA and ROB [2] | DRI EDTA:ROB ([3]; A. baumannii ATCC 12457) | MIC in combination EDTA:ROB [3, 10] | MIC [3, 11] | MIC50 [5, 6] | MIC90 [5, 7] | MIC range, single drug ([5]; canine otitis externa) | MIC50, in combination of EDTA and ROB [5] | MIC90, in combination of EDTA and ROB [5] | MIC range, in combination of EDTA and ROB [5] | further results
O=C(O)CN(CCN(CC(=O)O)CC(=O)O)CC(=O)O [EDTA, ethylenediaminetetraacetic acid] | 3.8 mM | 190 µg/mL | 190 µg/mL | 95 to 380 µg/mL | 95 µg/mL | 95 µg/mL | 95 µg/mL | 2 | 95 µg/mL | 190 µg/mL | 380 µg/mL | 750 µg/mL | 190 to 750 µg/mL | 190 µg/mL | 380 µg/mL | 95 to 380 µg/mL | MBC/MIC row, EDTA in combination [2]: 750 µg/mL; MBC/MIC row, EDTA in combination (mM in parentheses) [2]: 2 mM; MIC range, single drug (mM in parentheses) [2]: 0.25 to 1 mM; MIC50, in combination of EDTA and ROB (mM in parentheses) ([2]; EDTA component): 0.25 mM; MIC90, in combination of EDTA and ROB (mM in parentheses) ([2]; EDTA component): 0.25 mM; MIC range, in combination of EDTA and ROB (mM in parentheses) ([2]; EDTA component): 0.25 mM; MIC50 [2, 8]: 0.5 mM; MIC90 [2, 9]: 0.5 mM; MIC in combination EDTA:ROB (mM in parentheses) ([3]; A. baumannii ATCC 12457, EDTA component): 0.25 mM; MIC ([3]; ATCC12457, read-out: MIC, single drug (mM in parentheses)): 0.5 mM; concentration with significant disruption of 24 h preformed biofilms ([4]; Gram-positive (S. pseudintermedius) biofilms, vs growth control): 1 mM; MBC/MIC row, EDTA in combination [5]: 750 µg/mL; MBC/MIC row, EDTA in combination (mM in parentheses) [5]: 2 mM; MIC range, single drug (mM in parentheses) [5]: 0.5 to 2 mM; MIC50, in combination of EDTA and ROB (mM in parentheses) ([5]; EDTA component): 0.5 mM; MIC90, in combination of EDTA and ROB (mM in parentheses) ([5]; EDTA component): 1 mM; MIC range, in combination of EDTA and ROB (mM in parentheses) ([5]; EDTA component): 0.25 to 1 mM; MIC50 [5, 8]: 1 mM; MIC90 [5, 9]: 2 mM
N=C(N/N=C/c1ccc(Cl)cc1)N/N=C/c1ccc(Cl)cc1 [ROB, robenidine] | 14 µg/mL | 2 µg/mL | 2 µg/mL | 1 to 4 µg/mL | 1 µg/mL | 1 µg/mL | 0.25 to 2 µg/mL | 32 | 2 µg/mL | 64 µg/mL | 8 µg/mL | 8 µg/mL | 4 to 16 µg/mL | 2 µg/mL | 4 µg/mL | 1 to 8 µg/mL | MBC/MIC, ROB in combination with EDTA [2]: 2; MBC/MIC, single drug ([2]; footnote for BS not shown): 1.5; MIC in combination PMBN:ROB [3, 10]: 2 µg/mL; antibiofilm activity ([4]; S. pseudintermedius biofilms, up to 128 μg/ml, 24 h): did not show any antibiofilm activity; MBC/MIC, ROB in combination with EDTA [5]: 2; MBC/MIC, single drug ([5]; footnote for BS not shown): 1.75
